This is an account of results in patent US4235893A, “Ester derivatives of 4-hydroxy-4-androstene-3,17-dione and a method for inhibiting estrogen biosynthesis” (priority 1978, dated 1980).

SMILES strings stand for the structures.

Data set [1] relates to estrogen biosynthesis. The note with it: Endocrinology 92, 866 (1973); Endocrinology 100, 1684 (1977); cited from earlier work.
The test system of data set [2] is estrogen biosynthesis. The experiment in a line: In vitro inhibition of estrogen biosynthesis. The format is biochemical.
A short description of data set [3]: Release of compound from skin implant in rat studies. It counts as in vivo.
Data set [4] is described as follows: Polarity by thin layer chromatography. The format is physicochemical. As to conditions: compared with 4-acetate-4-A.
For data set [5], the system named is implantation in mated rats. The experiment in a line: In vivo effect on implantation in mated rats. Details: species or system rat. The note with it: 7 mated rats; 100 mg/kg daily by injection from Day 2 of pregnancy. On the procedure: Injections of 4-acetate-4-A in a suspending vehicle were begun at 0800 hr on Day 2 of pregnancy, and repeated thereafter at […], and at 2400 hr as 2/6 daily dose. The daily does was 100 mg of 4-acetate-4-A per kg of body weight. Control animals were treated the same except that only the suspending vehicle was injected.

Data set [6] relates to Estrogen-dependent mammary tumors. Description: In vivo effect on DMBA-induced estrogen-dependent mammary tumors in rats. The arrangement: species or system rat. The note with it: after 4 weeks, wafer with 150 mg plus sc 2.5 mg/100 g twice daily. As to the method: Estrogen-dependent mammary tumors where induced in rats with DMBA. Prior to treatment the 7 sample group rats had 23 tumors; the 6 control group rats had 17 tumors. During the initial treatment period the number of tumors increased to 28 for the sample group, 24 for the control group.
The sample group was treated with implanted wafers containing 0.5 g silastic and 150 mg 4-acetate-4-A. The sample group was also treated twice daily for 4 weeks with sc injections of 4-acetate-4-A (2.5 mg/100 g animal) in a suspending vehicle. The control was treated the same except that 4-acetate-4-A was omitted from the wafers and the injection.

Data set [7] concerns estrogen biosynthesis. The experiment in a line: In vivo inhibition of estrogen biosynthesis. Details: species or system rat.
The next data set has as its system mating in rats. The experiment in a line: In vivo effect on mating in rats (silastic wafer implant). The arrangement: species or system rat. The note with it: 8 female rats. On the procedure:
Female rats showing at least 2 consecutive 4-day cycles were used. On the day of diestrus I, a silastic wafer, was inserted under the dorsal skin of each rat. The wafer, about 25 mm in diameter and 1 mm thick, was prepared by polymerizing 0.5 g of Corning medical grade Silastic 382 with 75 mg 4-acetate-4-A, using stannous octoate catalyst. Each female was housed with 2 fertile males until mating occurred. Control animals were treated with same except that 4-acetate-4-A was omitted from the wafer.

For the compound `C[C@]12C=CC(=O)C=C1C=C[C@@H]1[C@@H]2CC[C@]2(C)C(=O)CC[C@@H]12` [1,4,6-androstatriene-3,17-dione], the “inhibition of estrogen biosynthesis (literature)” value (shortened to “inhibition”) in the data set with estrogen biosynthesis [1] is recorded as “effective inhibitors of estrogen biosynthesis”.

On to `C[C@]12CC[C@H]3[C@@H](CCC4=CC(=O)CC[C@@H]43)[C@@H]1CCC2=O` [4-estrene-3,17-dione], for which the “inhibition” value with estrogen biosynthesis [1] is reported as “effective inhibitors of estrogen biosynthesis”.

Consider `CCCCCCC(=O)OC1=C2CCC3C4CCC(=O)C4(C)CCC3C2(C)CCC1=O` (stereo not shown) [4-heptanoate-4-A], for which the “ability to inhibit estrogen biosynthesis (in vitro)” value in the data set on estrogen biosynthesis [2] is recorded as “This expectation has been borne out”.

Regarding `C[C@]12CCC(=O)C=C1C(=O)C[C@@H]1[C@@H]2CC[C@]2(C)C(=O)CC[C@@H]12` (stereo in doubt) [4-androstene-3,6,17-trione], the “inhibition” value in the data set on estrogen biosynthesis [1] is on record as “effective inhibitors of estrogen biosynthesis”.

Consider `C[C@]12CCC(=O)C(O)=C1CC[C@@H]1[C@@H]2CC[C@]2(C)C(=O)CC[C@@H]12` [4-OH-4-A, 4-hydroxy-4-androstene-3,17-dione], for which the “diffusion / release from skin implant” value in data set [3] is on record as “does not diffuse as well from the implant”. In data set [4], the “polarity (thin layer chromatography)” value is on record as “less polar than 4-acetate-4-A”. In addition, the “inhibition” value in the data set with estrogen biosynthesis [1] was “effective inhibitor of estrogen biosynthesis”.

Consider `CC(=O)OC1=C2CCC3C4CCC(=O)C4(C)CCC3C2(C)CCC1=O` (stereo not shown) [4-acetate-4-A], for which, in data set [5], the Animals without implants is 4, the “Average number of normal-sized implants/animal” value is reported as 1.7, the “Average number of small (<2.4 mm) implants/animal” value stood at 1.4 and the “Number of animals affected by treatment” value was 7. Also, in data set [6], the tumors completely regressed stood at 64%. The “tumors regressed to less than 1/2 their pretreatment size” value in data set [6] (in addition to those completely regressed) is 32%. In data set [3], the “diffusion / release from skin implant” value is recorded as “continuous, uniform release”. Also, the ovarian estrogen secretion entry in the data set with estrogen biosynthesis [7] (in vivo rat studies) is “lower ovarian estrogen secretion”. Moreover, the “Number of animals mating on a given day: 1st” value with mating in rats (1st day, silastic wafer with 75 mg 4-acetate-4-A under dorsal skin) stood at 0. In the data set on mating in rats (6th day, silastic wafer with 75 mg), the “Number of animals mating on a given day: 6th” value stood at 2. Moreover, the “Number of animals mating on a given day: 7th” value with mating in rats (7th day, silastic wafer with 75 mg) is 2. The “Number of animals mating on a given day: 15th day” value with mating in rats (15th day, silastic wafer with 75 mg) came to 3. Further, the “Number of animals mating on a given day: 2d” value in the data set with mating in rats (2d day, silastic wafer with 75 mg) stood at 1.

With `CC12CCC3C(CCC4=C(OC(=O)CCC(=O)O)C(=O)CCC43C)C1CCC2=O` (stereo not shown) [4-hemisuccinate-4-A], the “ability to inhibit estrogen biosynthesis (in vitro)” value in the data set with estrogen biosynthesis [2] is listed as “marked ability to inhibit estrogen biosynthesis”. The “ability to inhibit estrogen biosynthesis (in vivo)” value with estrogen biosynthesis [7] (in vivo) was “marked ability to inhibit estrogen biosynthesis”.
